Reference: the supplement of paper PMC8612539
Converted amounts (≈) assume the structure as drawn.

Tested on: Pasteurella multocida
Test: minimum inhibitory concentration (MIC)
Description: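 Broth microdilution MIC (Sensititre BOPO7F bovine plate, CLSI methods) of 19 antimicrobials against field isolates of P. multocida, M. haemolytica, H. somni (deep nasopharyngeal swabs) and E. coli, Enterococcus spp. (rectal swabs) from weaned dairy heifers. Incubation 16-24 h at 35 C. MIC is the lowest concentration preventing visible growth. Values with <= or > lie at the tested range limits. Trimethoprim-sulfamethoxazole is given as the trimethoprim component of a 1:19 mixture.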

Q: For `CO/N=C(\C(=O)N[C@@H]1C(=O)N2C(C(=O)O)=C(CSC(=O)c3ccco3)CS[C@H]12)c1csc(N)n1` [Ceftiofur], which minimum inhibitory concentration (isolate (source animal id): 10) is on record?
A: ≤ 0.25 µg/mL

Q: And the minimum inhibitory concentration (isolate (source animal id): 11)?
A: ≤ 0.25 µg/mL

Q: What about the minimum inhibitory concentration (isolate (source animal id): 12) of the same compound?
A: ≤ 0.25 µg/mL

Q: What about the minimum inhibitory concentration (isolate (source animal id): 19) of the same compound?
A: ≤ 0.25 µg/mL

Q: And the minimum inhibitory concentration (isolate (source animal id): 23)?
A: ≤ 0.25 µg/mL

Q: And the minimum inhibitory concentration (isolate (source animal id): 26)?
A: ≤ 0.25 µg/mL

Q: What about the minimum inhibitory concentration (isolate (source animal id): 98) of the same compound?
A: ≤ 0.25 µg/mL

Q: What about the minimum inhibitory concentration (isolate (source animal id): 104) of the same compound?
A: ≤ 0.25 µg/mL

Q: What about the minimum inhibitory concentration (isolate (source animal id): 115) of the same compound?
A: ≤ 0.25 µg/mL

Q: And the minimum inhibitory concentration (isolate (source animal id): 117)?
A: ≤ 0.25 µg/mL

Q: And the minimum inhibitory concentration (isolate (source animal id): 118)?
A: ≤ 0.25 µg/mL

Q: What about the minimum inhibitory concentration (isolate (source animal id): 121) of the same compound?
A: ≤ 0.25 µg/mL

Q: And the minimum inhibitory concentration (isolate (source animal id): 124)?
A: ≤ 0.25 µg/mL

Q: What about the minimum inhibitory concentration (isolate (source animal id): 125) of the same compound?
A: ≤ 0.25 µg/mL

Q: And the minimum inhibitory concentration (isolate (source animal id): 128)?
A: ≤ 0.25 µg/mL

Q: And the minimum inhibitory concentration (isolate (source animal id): 131)?
A: ≤ 0.25 µg/mL

Q: What about the minimum inhibitory concentration (isolate (source animal id): 135) of the same compound?
A: ≤ 0.25 µg/mL

Q: And the minimum inhibitory concentration (isolate (source animal id): 136)?
A: ≤ 0.25 µg/mL

Q: And the minimum inhibitory concentration (isolate (source animal id): 140)?
A: ≤ 0.25 µg/mL

Q: What about the minimum inhibitory concentration (isolate (source animal id): 144) of the same compound?
A: ≤ 0.25 µg/mL

Q: And the minimum inhibitory concentration (isolate (source animal id): 146)?
A: ≤ 0.25 µg/mL

Q: And the minimum inhibitory concentration (isolate (source animal id): 150)?
A: ≤ 0.25 µg/mL

Q: And the minimum inhibitory concentration (isolate (source animal id): 151)?
A: ≤ 0.25 µg/mL

Q: What about the minimum inhibitory concentration (isolate (source animal id): 153) of the same compound?
A: ≤ 0.25 µg/mL

Q: What about the minimum inhibitory concentration (isolate (source animal id): 155) of the same compound?
A: ≤ 0.25 µg/mL

Q: And the minimum inhibitory concentration (isolate (source animal id): 157)?
A: ≤ 0.25 µg/mL

Q: And the minimum inhibitory concentration (isolate (source animal id): 160)?
A: ≤ 0.25 µg/mL

Q: And the minimum inhibitory concentration (isolate (source animal id): 164)?
A: ≤ 0.25 µg/mL

Q: What about the minimum inhibitory concentration (isolate (source animal id): 165) of the same compound?
A: ≤ 0.25 µg/mL

Q: And the minimum inhibitory concentration (isolate (source animal id): 167)?
A: ≤ 0.25 µg/mL

Q: What about the minimum inhibitory concentration (isolate (source animal id): 168) of the same compound?
A: ≤ 0.25 µg/mL

Q: What about the minimum inhibitory concentration (isolate (source animal id): 169) of the same compound?
A: ≤ 0.25 µg/mL

Q: What about the minimum inhibitory concentration (isolate (source animal id): 170) of the same compound?
A: ≤ 0.25 µg/mL

Q: And the minimum inhibitory concentration (isolate (source animal id): 171)?
A: ≤ 0.25 µg/mL

Q: What about the minimum inhibitory concentration (isolate (source animal id): 172) of the same compound?
A: ≤ 0.25 µg/mL

Q: What about the minimum inhibitory concentration (isolate (source animal id): 173) of the same compound?
A: ≤ 0.25 µg/mL

Q: What about the minimum inhibitory concentration (isolate (source animal id): 174) of the same compound?
A: ≤ 0.25 µg/mL

Q: And the minimum inhibitory concentration (isolate (source animal id): 175)?
A: 1 µg/mL (≈ 1.91 µM)

Q: And the minimum inhibitory concentration (isolate (source animal id): 176)?
A: ≤ 0.25 µg/mL

Q: What about the minimum inhibitory concentration (isolate (source animal id): 177) of the same compound?
A: ≤ 0.25 µg/mL

Q: What about the minimum inhibitory concentration (isolate (source animal id): 178) of the same compound?
A: ≤ 0.25 µg/mL

Q: And the minimum inhibitory concentration (isolate (source animal id): 179)?
A: ≤ 0.25 µg/mL

Q: What about the minimum inhibitory concentration (isolate (source animal id): 182) of the same compound?
A: ≤ 0.25 µg/mL

Q: What about the minimum inhibitory concentration (isolate (source animal id): 192) of the same compound?
A: ≤ 0.25 µg/mL

Q: And the minimum inhibitory concentration (isolate (source animal id): 193)?
A: ≤ 0.25 µg/mL

Q: And the minimum inhibitory concentration (isolate (source animal id): 195)?
A: ≤ 0.25 µg/mL

Q: And the minimum inhibitory concentration (isolate (source animal id): 196)?
A: ≤ 0.25 µg/mL

Q: And the minimum inhibitory concentration (isolate (source animal id): 197)?
A: ≤ 0.25 µg/mL

Q: What about the minimum inhibitory concentration (isolate (source animal id): 198) of the same compound?
A: ≤ 0.25 µg/mL

Q: And the minimum inhibitory concentration (isolate (source animal id): 199)?
A: ≤ 0.25 µg/mL

Q: What about the minimum inhibitory concentration (isolate (source animal id): 200) of the same compound?
A: ≤ 0.25 µg/mL

Q: And the minimum inhibitory concentration (isolate (source animal id): 201)?
A: ≤ 0.25 µg/mL

Q: And the minimum inhibitory concentration (isolate (source animal id): 203)?
A: ≤ 0.25 µg/mL

Q: And the minimum inhibitory concentration (isolate (source animal id): 204)?
A: ≤ 0.25 µg/mL

Q: What about the minimum inhibitory concentration (isolate (source animal id): 205) of the same compound?
A: ≤ 0.25 µg/mL

Q: And the minimum inhibitory concentration (isolate (source animal id): 206)?
A: ≤ 0.25 µg/mL

Q: And the minimum inhibitory concentration (isolate (source animal id): 207)?
A: ≤ 0.25 µg/mL

Q: And the minimum inhibitory concentration (isolate (source animal id): 208)?
A: ≤ 0.25 µg/mL

Q: What about the minimum inhibitory concentration (isolate (source animal id): 209) of the same compound?
A: ≤ 0.25 µg/mL

Q: What about the minimum inhibitory concentration (isolate (source animal id): 210) of the same compound?
A: ≤ 0.25 µg/mL

Q: What about the minimum inhibitory concentration (isolate (source animal id): 213) of the same compound?
A: ≤ 0.25 µg/mL

Q: And the minimum inhibitory concentration (isolate (source animal id): 216)?
A: ≤ 0.25 µg/mL

Q: What about the minimum inhibitory concentration (isolate (source animal id): 223) of the same compound?
A: ≤ 0.25 µg/mL

Q: What about the minimum inhibitory concentration (isolate (source animal id): 227) of the same compound?
A: ≤ 0.25 µg/mL

Q: What about the minimum inhibitory concentration (isolate (source animal id): 229) of the same compound?
A: ≤ 0.25 µg/mL

Q: And the minimum inhibitory concentration (isolate (source animal id): 233)?
A: ≤ 0.25 µg/mL

Q: What about the minimum inhibitory concentration (isolate (source animal id): 234) of the same compound?
A: ≤ 0.25 µg/mL

Q: And the minimum inhibitory concentration (isolate (source animal id): 237)?
A: ≤ 0.25 µg/mL

Q: What about the minimum inhibitory concentration (isolate (source animal id): 241) of the same compound?
A: ≤ 0.25 µg/mL

Q: What about the minimum inhibitory concentration (isolate (source animal id): 245) of the same compound?
A: ≤ 0.25 µg/mL

Q: And the minimum inhibitory concentration (isolate (source animal id): 247)?
A: ≤ 0.25 µg/mL

Q: And the minimum inhibitory concentration (isolate (source animal id): 250)?
A: ≤ 0.25 µg/mL

Q: What about the minimum inhibitory concentration (isolate (source animal id): 254) of the same compound?
A: ≤ 0.25 µg/mL

Q: And the minimum inhibitory concentration (isolate (source animal id): 255)?
A: ≤ 0.25 µg/mL

Q: What about the minimum inhibitory concentration (isolate (source animal id): 258) of the same compound?
A: ≤ 0.25 µg/mL

Q: And the minimum inhibitory concentration (isolate (source animal id): 261)?
A: ≤ 0.25 µg/mL

Q: What about the minimum inhibitory concentration (isolate (source animal id): 262) of the same compound?
A: ≤ 0.25 µg/mL

Q: What about the minimum inhibitory concentration (isolate (source animal id): 269) of the same compound?
A: ≤ 0.25 µg/mL

Q: And the minimum inhibitory concentration (isolate (source animal id): 270)?
A: ≤ 0.25 µg/mL

Q: And the minimum inhibitory concentration (isolate (source animal id): 274)?
A: ≤ 0.25 µg/mL

Q: And the minimum inhibitory concentration (isolate (source animal id): 275)?
A: ≤ 0.25 µg/mL

Q: What about the minimum inhibitory concentration (isolate (source animal id): 276) of the same compound?
A: ≤ 0.25 µg/mL

Q: What about the minimum inhibitory concentration (isolate (source animal id): 277) of the same compound?
A: ≤ 0.25 µg/mL

Q: What about the minimum inhibitory concentration (isolate (source animal id): 278) of the same compound?
A: ≤ 0.25 µg/mL

Q: What about the minimum inhibitory concentration (isolate (source animal id): 279) of the same compound?
A: ≤ 0.25 µg/mL

Q: What about the minimum inhibitory concentration (isolate (source animal id): 280) of the same compound?
A: ≤ 0.25 µg/mL

Q: What about the minimum inhibitory concentration (isolate (source animal id): 284) of the same compound?
A: ≤ 0.25 µg/mL

Q: And the minimum inhibitory concentration (isolate (source animal id): 285)?
A: ≤ 0.25 µg/mL

Q: What about the minimum inhibitory concentration (isolate (source animal id): 287) of the same compound?
A: ≤ 0.25 µg/mL

Q: What about the minimum inhibitory concentration (isolate (source animal id): 290) of the same compound?
A: ≤ 0.25 µg/mL

Q: What about the minimum inhibitory concentration (isolate (source animal id): 294) of the same compound?
A: ≤ 0.25 µg/mL

Q: What about the minimum inhibitory concentration (isolate (source animal id): 295) of the same compound?
A: ≤ 0.25 µg/mL

Q: And the minimum inhibitory concentration (isolate (source animal id): 296)?
A: ≤ 0.25 µg/mL

Q: And the minimum inhibitory concentration (isolate (source animal id): 307)?
A: ≤ 0.25 µg/mL

Q: And the minimum inhibitory concentration (isolate (source animal id): 310)?
A: ≤ 0.25 µg/mL

Q: And the minimum inhibitory concentration (isolate (source animal id): 311)?
A: ≤ 0.25 µg/mL

Q: And the minimum inhibitory concentration (isolate (source animal id): 312)?
A: ≤ 0.25 µg/mL

Q: And the minimum inhibitory concentration (isolate (source animal id): 313)?
A: ≤ 0.25 µg/mL

Q: And the minimum inhibitory concentration (isolate (source animal id): 315)?
A: ≤ 0.25 µg/mL

Q: And the minimum inhibitory concentration (isolate (source animal id): 316)?
A: ≤ 0.25 µg/mL
